The IC50 is the concentration at which inhibition is half-maximal. Read a high IC50 as weaker potency.

This note sets out measurements from PMC4644816, “A Tetrameric Peptide Derived from Bovine Lactoferricin Exhibits Specific Cytotoxic Effects against Oral Squamous-Cell Carcinoma Cell Lines” (BioMed Research International, 2015).

The subject of one data set is SCC15 cells. In words: MTT cytotoxic assay, SCC15. It is filed as cell-based. The protocol: (§1) The cell lines CAL27 (ATCC CRL-2095) and SCC15 (ATCC CRL-1623) and the human immortalized nontumorigenic epithelial esophagus cell line Het-1A (ATCC CRL-2692) were purchased from ATCC (Manassas, VA). CAL27 cells were cultured in Dulbecco's Modified Eagle's Medium (DMEM; Gibco) with 10% of fetal bovine serum (FBS; Gibco). […] Het-1A cells were cultured in Bronchial Epithelial Cell Growth Medium (BEBM) with the additives obtained from Lonza/Clonetics Corporation as a kit (CC-3170), without antibiotics. All cells were maintained at 37°C in a 5% CO2 humidified atmosphere. For Het-1A cells, the culture flasks were precoated with fibronectin (0.01 mg/mL), bovine collagen type I (0.03 mg/mL), and bovine serum albumin (0.01 mg/mL) dissolved in a culture medium and incubated for 24 h before culturing the cells. Cell stocks were prepared and thawed periodically and used in early subcultures (not exceeding 5–10 population doublings). Cell viability was estimated by Trypan blue exclusion staining and was always higher than 97%. Growth curves for each cell line were done using 3-(4,5-dimethylthiazol-2-yl)-2,5-diphenyltetrazolium bromide (MTT). […] SCC15 cells having a mesenchymal- or epithelia-like phenotype were separated by their differential adherence to plastic dish and characterized for the expression of specific markers (see Section 2.7). Cytotoxic activity was determined using the MTT assay. Briefly, cells were seeded in 96-well plates with a confluence of approximately 70% (8 × 10^3 CAL27-cells/well, 4 × 10^3 SCC15-cells/well, and 1.6 × 10^4 Het-1A-cells/well). After cell adherence, the culture medium was removed and peptides at different concentrations (between 100 and 6.25 μg/mL) and times (between 1 and 24 h or 48, 72, and 96 h) were added to the wells in the absence of FBS. Staurosporine (STA) was used as positive control (CAL27: 0.4 μg/mL, SCC15 0.6 μg/mL, and Het-1A 0.6 μg/mL). Phase-contrast photomicrographs of the treated cells were taken (Nikon, Eclipse TS500). After treatment, the medium was replaced with 100 μL of complete culture media with 10% of MTT (5 mg/mL), and cells were incubated for 4–6 h. Finally, 100 μL of DMSO was added in order to lyse the cells and release and solubilize the Formazan crystals. After 10 min of incubation at 37°C, absorbance was measured at 550 nm. […] In some experiments and after treatments, remaining viable cells were treated again with peptides. Cells were first treated with peptides for 24 h and washed carefully and then fresh culture medium was added and cells were further incubated for 72 h.
(In general: Formazan colour is commonly taken as a measure of viable cells.)

Data set [1] has as its system Het-1A cells. In words: MTT cytotoxic assay, Het-1A. Format: cell-based, human. The procedure:
as §1

The test system of data set [2] is CAL27 cells. As to the kind of experiment: MTT cytotoxic assay, CAL27. It is filed as cell-based. The procedure:
as §1

Data set [3] relates to Het-1A cells. As to the kind of experiment: Apoptotic/necrotic assay (Annexin V-FITC/PI flow cytometry), Het-1A. The note with it: 1 h treatment. Background: A flow cytometer gives signals particle by particle.
Description: (§2) 1 × 10^5 CAL27 and Het-1A cells were treated with peptides for 1 h at 37°C and then labeled with Annexin V-FITC/PI, using the Dead Cell Apoptosis Kit for flow cytometry (Thermo Fisher Scientific). As a control for necrosis, the cells were treated for 5 min with 0.2% T-X100.
For data set [4], the system named is normal human erythrocytes. It is filed as cell-based. The procedure:
5 mL of heparinized peripheral blood was centrifuged at 1000 g for 7 min. The erythrocyte-rich fraction was resuspended in 10 mL of PBS and washed twice by centrifugation at 1000 g for 7 min. […] PBS was used as negative control, while Tween-20 (20% v/v) in PBS was used as positive controls. The 96-well plates were centrifuged, the supernatants were collected, and the absorbance was determined at 540 nm.

Data set [5] deals with CAL27 cells. As to the kind of experiment: Apoptotic/necrotic assay (Annexin V-FITC/PI flow cytometry), CAL27. The note with it: CAL27, 1 h treatment.
Description: as §2

Where a SMILES comes first, the peptide text is derived from it. Bridges are numbered along the chain shown (N, C = ends). Roman numbers before positions name the chains, in order. Where no end group is shown, it is not given here. [ ]: non-standard residue; d: D form. Ahx = NCCCCCC(=O)O

As to “RRWQWR-NH2 (C-terminus assumed) [LfcinB(20–25)]”, the IC50 in the data set with SCC15 cells (1 h), with SCC15 cells (3 h), with SCC15 cells (24 h), in the data set with Het-1A cells [1] (1 h), with Het-1A cells [1] (3 h) and with Het-1A cells [1] (24 h) was over 101 µM in each case. In addition, the IC50 in the data set with CAL27 cells [2] (1 h), in the data set with CAL27 cells [2] (3 h) and in the data set with CAL27 cells [2] (24 h) was over 101 µM each time.

In the case of `CC[C@H](C)[C@H](NC(=O)[C@H](CO)NC(=O)[C@@H]1CCCN1C(=O)[C@H](C)NC(=O)CNC(=O)[C@H](CC(C)C)NC(=O)[C@H](CCCCN)NC(=O)[C@H](CCCCN)NC(=O)[C@H](CCSC)NC(=O)[C@H](CCCNC(=N)N)NC(=O)[C@H](Cc1c[nH]c2ccccc12)NC(=O)[C@H](CCC(N)=O)NC(=O)[C@H](Cc1c[nH]c2ccccc12)NC(=O)[C@H](CCCNC(=N)N)NC(=O)[C@H](CCCNC(=N)N)NC(=O)[C@H](CS)NC(=O)[C@H](CCCCN)NC(=O)[C@@H](N)Cc1ccccc1)C(=O)N[C@H](C(=O)N[C@@H](CS)C(=O)N[C@H](C(=O)N[C@@H](CCCNC(=N)N)C(=O)N[C@@H](CCCNC(=N)N)C(=O)N[C@@H](C)C(=O)N[C@@H](Cc1ccccc1)C(N)=O)C(C)C)[C@@H](C)O` [LfcinB25, reference compound], the cytotoxicity stood at 60% in the data set with SCC15 cells (SCC15, 24 h, highest concentration tested 100 μg/mL (LfB 1.25 μM, LfcinB25 32 μM, LfcinB(20–25)4 22.25 μM), MTT); 60.5% in the data set on Het-1A cells [1] (Het-1A, 24 h, highest concentration tested 100 μg/mL (LfB 1.25 μM, LfcinB25 32 μM, LfcinB(20–25)4 22.25 μM), MTT); 64.4% with CAL27 cells [2] (CAL27, 24 h, highest concentration tested 100 μg/mL (LfB 1.25 μM, LfcinB25 32 μM, LfcinB(20–25)4 22.25 μM), MTT).

As for `N=C(N)NCCC[C@H](NC(=O)[C@H](Cc1c[nH]c2ccccc12)NC(=O)[C@H](CCC(N)=O)NC(=O)[C@H](Cc1c[nH]c2ccccc12)NC(=O)[C@H](CCCNC(=N)N)NC(=O)[C@@H](N)CCCNC(=N)N)C(=O)NCCCC[C@H](NC(=O)[C@H](CCCNC(=N)N)NC(=O)[C@H](Cc1c[nH]c2ccccc12)NC(=O)[C@H](CCC(N)=O)NC(=O)[C@H](Cc1c[nH]c2ccccc12)NC(=O)[C@H](CCCNC(=N)N)NC(=O)[C@@H](N)CCCNC(=N)N)C(=O)NCCCCCC(=O)N[C@@H](CSSC[C@H](NC(=O)CCCCCNC(=O)[C@H](CCCCNC(=O)[C@H](CCCNC(=N)N)NC(=O)[C@H](Cc1c[nH]c2ccccc12)NC(=O)[C@H](CCC(N)=O)NC(=O)[C@H](Cc1c[nH]c2ccccc12)NC(=O)[C@H](CCCNC(=N)N)NC(=O)[C@@H](N)CCCNC(=N)N)NC(=O)[C@H](CCCNC(=N)N)NC(=O)[C@H](Cc1c[nH]c2ccccc12)NC(=O)[C@H](CCC(N)=O)NC(=O)[C@H](Cc1c[nH]c2ccccc12)NC(=O)[C@H](CCCNC(=N)N)NC(=O)[C@@H](N)CCCNC(=N)N)C(N)=O)C(N)=O` [LfcinB(20–25)4] (I: H-RRWQWRK[Ahx]C-NH2 / II: H-RRWQWRK[Ahx]C-NH2 / III: H-RRWQWR / IV: H-RRWQWR; amide I:7-III:C, II:7-IV:C; disulfide I:9-II:9; N-terminus and C-terminus assumed), the “apoptotic cell population (PI−/Annexin+), in words” value in the data set on Het-1A cells [3] and with CAL27 cells [5] was “not detected” in each case. The IC50 was found to be 13.6 ± 1.06 µM in the data set on SCC15 cells (1 h); 12.6 ± 1.06 µM in the data set on SCC15 cells (3 h); 9.05 ± 1.07 µM in the data set on SCC15 cells (24 h); 18.8 ± 1.11 µM in the data set on Het-1A cells [1] (3 h); 17.4 ± 1.11 µM with Het-1A cells [1] (24 h); 16 ± 1.36 µM in the data set on CAL27 cells [2] (1 h). For the same compound, the IC50 in the data set on CAL27 cells [2] (3 h) came to 17.4 ± 1.77 µM; in the data set on CAL27 cells [2] (24 h) it was 9.02 ± 1.38 µM. For the same compound, the “cytotoxicity of a second addition of the peptide (in words)” value in the data set with CAL27 cells [2] is reported as “reduced to the same extent as the one obtained after the first treatment”. In data set [4], the “concentration at which lysis of erythrocytes was shown” value stood at 500 µg/mL.

On to “RWQWRWQWR-NH2 (C-terminus assumed) [LfcinB-Pal]”, for which the IC50 with SCC15 cells (1 h) is over 67.3 µM; with SCC15 cells (3 h), over 67.3 µM; in the data set with SCC15 cells (24 h) it was over 67.3 µM; in the data set with Het-1A cells [1] (1 h) it was over 67.3 µM; with Het-1A cells [1] (3 h), 62.2 ± 1.56 µM; in the data set on Het-1A cells [1] (24 h), over 67.3 µM. Also, the half-maximal inhibitory concentration (IC50) in the data set with CAL27 cells [2] (1 h) is 22.8 ± 1.12 µM; with CAL27 cells [2] (3 h), 22.6 ± 1.02 µM; in the data set with CAL27 cells [2] (24 h), 21.5 ± 1.05 µM. The “cytotoxic effect (in words)” value in the data set with SCC15 cells (SCC15, 24 h, MTT, up to 100 μg/mL) is listed as “only slightly”; with Het-1A cells [1] (Het-1A, 24 h, MTT, at 40 μM), “low”; in the data set with CAL27 cells [2] (CAL27, 24 h, MTT, up to 100 μg/mL), “clearly improved the cytotoxic effect”.
